{"source": "patent US20170071203A1", "about": "“Active compound combinations having insecticidal properties” (BAYER CROPSCIENCE AKTIENGESELLSCHAFT, priority 2014, published 2017)", "type_in_all_cases": "in vivo", "key": {"[1]": {"tested_on": "mustard beetle larvae (Phaedon cochleariae)", "experiment": "Phaedon cochleariae - spray test", "details": "20 g ai/ha", "excerpt": "(§1) The expected activity for a given combination of two active compounds can be calculated according to S. R. Colby, Weeds 15 (1967), 20-22 as follows:\n(§2) • X is the kill rate, expressed in % of the untreated control, when active compound A is applied at an application rate of m g/ha or at a concentration of m ppm, • Y is the kill rate, expressed in % of the untreated control, when active compound B is applied at an application rate of n g/ha or at a concentration of n ppm and • E is the kill rate, expressed in % of the untreated control, when active compounds A and B is applied at application rates of m and n g/ha or at a concentration of m and n ppm, then\n(§3) If the observed insecticidal efficacy of the combination is higher than the one calculated as “E”, then the combination of the two compounds is more than additive, i.e., there is a synergistic effect.\nTo produce a suitable preparation of active compound, 1 part by weight of active compound is mixed with the stated amount of solvents and is diluted with water, containing an emulsifier concentration of 1000 ppm, to the desired concentration. […]\nAfter the specified period of time, mortality in % is determined 100% means all beetle larvae have been killed and 0% means none of the beetle larvae have been killed. The mortality values determined thus are recalculated using the Colby-formula (see sheet 1)."}, "[2]": {"tested_on": "larvae of the cotton boll worm (Heliothis armigera)", "experiment": "Heliothis armigera - spray test", "excerpt": "as §1, §2, §3\nTo produce a suitable preparation of active compound, 1 part by weight of active compound is mixed with the stated amount of solvent and is diluted with water, containing an emulsifier concentration of 1000 ppm, to the desired concentration. Further test concentrations are prepared by dilution with emulsifier containing water Ammonium salt and/or penetration enhancer in a dosage of 1000 ppm are added to the desired concentration if necessary.\nCotton plants (Gossypium hirsutum) are treated by being sprayed with the preparation of the active compound of the desired concentration and are infested with larvae of the cotton boll worm (Heliothis armigera).\nAfter the specified period of time, the mortality in % is determined 100% means all caterpillars have been killed; 0% means none of the caterpillars have been killed. The mortality values determined thus are recalculated using the Colby-formula (see sheet 1)."}, "[3]": {"tested_on": "two spotted spidermite (Tetranychus urticae)", "experiment": "Tetranychus urticae - spray test, OP-resistant", "excerpt": "as §1, §2, §3\n(§4) To produce a suitable preparation of active compound, 1 part by weight of active compound is mixed with the stated amount of solvents and is diluted with water, containing an emulsifier concentration of 1000 ppm, to the desired concentration. To produce a suitable preparation of a spore suspension the spores are diluted with emulsifier containing water to the desired concentration. Further test concentrations are prepared by dilution with emulsifier containing water.\nFrench bean (Phaseolus vulgaris) leaf disks which are heavily infested with all stages of the two spotted spidermite (Tetranychus urticae), are sprayed with a preparation of the active ingredient of the desired concentration.\nAfter the specified period of time, mortality in % is determined. 100% means all spider mites have been killed and 0% means none of the spider mites have been killed. The mortality values determined thus are recalculated using the Colby-formula (see sheet 1)."}, "[4]": {"tested_on": "green peach aphid (Myzus persicae)", "experiment": "Myzus persicae - spray test", "excerpt": "as §1, §2, §3, §4\nChinese cabbage (Brassica pekinensis) leaf disks infected with all instars of the green peach aphid (Myzus persicae), are sprayed with a preparation of the active ingredient of the desired concentration.\nAfter the specified period of time, mortality in % is determined 100% means all aphids have been killed; 0% means none of the aphids have been killed. The mortality values determined thus are recalculated using the Colby-formula (see sheet 1)."}}}
{"compound": "CN1COCN(Cc2cnc(Cl)s2)/C1=N\\[N+](=O)[O-]", "note": "[Thiamethoxam]", "values": [{"measurement": "Efficacy in % after 2d", "setting": "[1]; after 2 d, Chinese cabbage leaf disks", "value": 0, "unit": "%"}, {"measurement": "Efficacy in % after 6d", "setting": "[1]; after 6 d", "value": 0, "unit": "%"}]}
{"compound": "O=[N+]([O-])NC1=NCCN1Cc1ccc(Cl)nc1", "note": "[Imidacloprid]", "values": [{"measurement": "Efficacy in % after 1d", "setting": "[2]; 80 ppm", "value": 0, "unit": "%"}, {"measurement": "Efficacy in % after 1d", "setting": "[2]; 160 ppm", "value": 0, "unit": "%"}, {"measurement": "Efficacy in % after 1d", "setting": "[2]; 320 ppm", "value": 30, "unit": "%"}, {"measurement": "Efficacy in % after 2d", "setting": "[2]; 320 ppm, after 2 d", "value": 70, "unit": "%"}, {"measurement": "Efficacy in % after 2d", "setting": "[3]; 0.8 g ai/ha", "value": 0, "unit": "%"}, {"measurement": "Efficacy in % after 2d", "setting": "[3]; 4 g ai/ha", "value": 0, "unit": "%"}]}
{"compound": "CS(=O)(=O)NC(=O)c1cccc(-c2cnc(-c3cccnc3)s2)n1", "note": "[Thiazolamid (II-11)]", "values": [{"measurement": "Efficacy in % after 2d", "setting": "[3]; 20 g ai/ha", "value": 0, "unit": "%"}]}
{"compound": "C/C(=N\\C#N)N(C)Cc1ccc(Cl)nc1", "note": "[Acetamiprid]", "values": [{"measurement": "Efficacy in % after 6d", "setting": "[3]; 0.8 g ai/ha", "value": 0, "unit": "%"}, {"measurement": "Efficacy in % after 6d", "setting": "[4]; 1.6 g ai/ha", "value": 70, "unit": "%"}]}
{"compound": "CN/C(=N/CC1CCOC1)N[N+](=O)[O-]", "note": "(stereo not drawn) [Dinotefuran]", "values": [{"measurement": "Efficacy in % after 6d", "setting": "[3]; 4 g ai/ha", "value": 0, "unit": "%"}, {"measurement": "Efficacy in % after 2d", "setting": "[3]; 20 g ai/ha", "value": 0, "unit": "%"}, {"measurement": "Efficacy in % after 6d", "setting": "[4]; 4.8 g ai/ha", "value": 0, "unit": "%"}, {"measurement": "Efficacy in % after 6d", "setting": "[4]; 9.6 g ai/ha", "value": 70, "unit": "%"}]}
{"compound": "N#C/N=C1\\SCCN1Cc1ccc(Cl)nc1", "note": "[Thiacloprid]", "values": [{"measurement": "Efficacy in % after 1d", "setting": "[4]; 0.8 g ai/ha, after 1 d", "value": 0, "unit": "%"}]}
{"compound": "CN/C(=N\\[N+](=O)[O-])NCc1cnc(Cl)s1", "note": "[Clothianidin]", "values": [{"measurement": "Efficacy in % after 2d", "setting": "[3]; 4 g ai/ha", "value": 0, "unit": "%"}, {"measurement": "Efficacy in % after 6d", "setting": "[4]; 0.15 g ai/ha", "value": 0, "unit": "%"}]}
